Values quoted from earlier work in patent publication US9999577B2, “Cream gels comprising at least one retinoid and benzoyl peroxide” (GALDERMA RESEARCH & DEVELOPMENT, priority 2006, dated 2018).
Like-named read-outs stand apart in the source and are kept apart here.

How the values were obtained:
[1] = for Decomposition time of benzoyl peroxide: 40° C.
[2] = not given; remark: listed apart in the source

COc1ccc(-c2ccc3cc(C(=O)O)ccc3c2)cc1C12CC3CC(CC(C3)C1)C2 [adapalene, 6-(3-(1-adamantyl)-4-methoxyphenyl)-2-naphthoic acid]
Retinoid decomposition in presence of benzoyl peroxide formulation (during 24 hours): no decomposition

O=C(OOC(=O)c1ccccc1)c1ccccc1 [benzoyl peroxide]
Decomposition of benzoyl peroxide in suspension ([1]; dispersed form in water and propylene glycol, storing for 90 days): not decomposed | Decomposition time of benzoyl peroxide ([1]; in PEG 400 (0.5 mg/g)): 1.4 days | Decomposition time of benzoyl peroxide ([1]; in ethanol): 29 days | Decomposition time of benzoyl peroxide ([1]; in propylene glycol): 53 days | Solubility of benzoyl peroxide ([2]; solvent PEG 400): 39.6 mg/g | Solubility of benzoyl peroxide ([2]; solvent ethanol): 17.9 mg/g | Solubility of benzoyl peroxide ([2]; solvent glycerol): 0.15 mg/g | Solubility of benzoyl peroxide ([2]; solvent propylene glycol): 2.95 mg/g | Solubility of benzoyl peroxide ([2]; solvent propylene glycol/water (75:25)): 0.36 mg/g | Solubility of benzoyl peroxide ([2]; solvent water): 0.000155 mg/g

CC1=C(/C=C/C(C)=C/C=C/C(C)=C/C(=O)O)C(C)(C)CCC1 [tretinoin]
Retinoid decomposing in presence of benzoyl peroxide formulation (2 hours): 50% | Retinoid decomposing in presence of benzoyl peroxide formulation (4 hours): 95%
